Earlier results as cited in patent publication US11123365B2, “Compositions comprising palmitoylethanolamide and hydrogen water, and methods thereof” (Perricone Hydrogen Water Company, LLC, priority 2019, dated 2021).

## CCCCCCCCCCCCCCCC(=O)NCCO [palmitoylethanolamide]
  solubility in water: less than 20 mM
